Assay results reported in US12251381B2, “Aripiprazole dosing strategy” (Alkermes Pharma Ireland Limited, priority 2018, dated 2025).

Test: Phase 1 study: injection-site evaluation (injection-site reactions)
Type: in vivo, human
Conditions: for patients who experienced ISRs / patients with injection-site pain: associated with the named injection; for Injection-site discomfort / Injection-site erythema / Injection-site induration / Injection-site pain / Injection-site swelling / Patients with at least one ISR: reactions associated with the named injection on day 1
Method: The duration of the study was approximately 6 months and consisted of screening, inpatient dosing, outpatient, and follow-up period (FIG. 1). […] A total of 160 patients were planned to be enrolled and randomized 1:1:1:1 to one of four treatment groups, as follows: 1-day initiation regimen groups (30 mg oral aripiprazole plus ALNCD, plus either AL 441 or 882 mg [on day 1] then 20 days of oral placebo), or 21-day initiation regimen groups (15 mg oral aripiprazole plus placebo IM, plus either AL 441 or 882 mg [on day 1] followed by 20 days of oral aripiprazole 15 mg/day). […] ALNCD or placebo were administered as IM injections in the gluteal muscle. For the AL doses, a single 441 mg dose was given in the deltoid muscle or a single 882 mg dose in the gluteal muscle contralateral to the ALNCD (or placebo) injection. All safety analyses were performed using observed data from the safety population, and measurements included adverse events (AEs), vital signs measurements, weight, laboratory test results, ECG findings, Columbia-Suicide Severity Rating Scale (C-SSRS) responses, movement disorder measures, CGI-S responses, and injection-site evaluation. AEs were assessed daily on days 1-15, every other day from days 17-25, on days 28 and 31, once-weekly from days 35 to 85, and on days 113 and 141. Injection-site evaluations were carried out daily on days 1-15, every other day from days 17-25, and on day 28. The injection site and surrounding area were evaluated with each injection (separately for the ALNCD or placebo injection site and AL site). Any observed injection-site reactions were followed until resolution.

In the case of `CCCCCCCCCCCC(=O)OCN1C(=O)CCc2ccc(OCCCCN3CCN(c4cccc(Cl)c4Cl)CC3)cc21` [AL, (7-(4-(4-(2,3-dichlorophenyl)piperazin-1-yl)butoxy)-2-oxo-3,4-dihydroquinolin-1(2H)-yl)methyl dodecanoate], the “severity of Injection-Site Reactions (ISRs)” value (all ISRs associated with the injection) is reported as “mild-to-moderate”, the “patients who experienced ISRs” value (listed as AL 441 mg) is reported as 22.8% and the “patients with injection-site pain” value (listed as AL 441 mg) is reported as 20.3%. The “patients who experienced ISRs” value (listed as AL 882 mg) was 18.3%, the “patients with injection-site pain” value (listed as AL 882 mg) was 18.3% and the Injection-site discomfort (listed as AL 441 mg) was 1 (1.3) n (%). The Injection-site erythema (listed as AL 441 mg) was 1 (1.3) n (%), the Injection-site induration (listed as AL 441 mg) was 4 (5.1) n (%) and the Injection-site pain (listed as AL 441 mg) was 16 (20.3) n (%). The Injection-site swelling (listed as AL 441 mg) was 2 (2.5) n (%), the “Patients with at least one ISR” value (listed as AL 441 mg) was 18 (22.8) n (%) and the Injection-site discomfort (listed as AL 882 mg) was 0 n (%). The Injection-site erythema (listed as AL 882 mg) was 0 n (%), the Injection-site induration (listed as AL 882 mg) was 2 (2.4) n (%) and the Injection-site pain (listed as AL 882 mg) was 15 (18.3) n (%). The Injection-site swelling (listed as AL 882 mg) was 1 (1.2) n (%) and the “Patients with at least one ISR” value (listed as AL 882 mg) was 15 (18.3) n (%).
